The values below come from US6462052B1, “Synergistic fungicide and/or bactericide composition” (Rhone-Poulenc Agro, priority 1998, dated 2002).

For the assay, the system named is Venturia inaequalis. The assay can be described thus: Combination of pyrimethanil and dodine in controlling apple scab: curative treatment of inoculated apple plants. It counts as in vivo. The following applies: for Practical efficacy: treated 3 days after inoculation, scored one month after inoculation; for Protection (in words): used alone. How it is done:
Example: Combination of pyrimethanil and dodine in controlling apple scab
The fungicides evaluated are the following:
The fungicidal compositions evaluated are the following:
Apple plants (var. Melrose Golden) at the 5-6-leaf stage are inoculated with an aqueous suspension containing 150 000 spores of Venturia inaequalis/ml of inoculum. The plants are then placed in a climatic cell at 16-18° C., 100% RH (relative humidity) for 3 days. They are then treated with the fungicidal compositions at the doses cited above (12 repeats/dose) in a plant protection mixture at 500 l/ha and are again placed under the conditions described above. One month after the inoculation, scores are awarded. This consists in estimating the diseased leaf surface area in the two leaf stages sensitive to the disease and, by comparing with an untreated contaminated control, in defining the percentage efficacy according to the following formula:
% practical efficacy=100×(% contamination Control−% contamination Trial)/% contamination Control
The theoretical efficacy according to the Colby formula is calculated based on the following formula:
% theoretical efficacy A+B=% practical eff. A+% practical eff. B−(% practical eff. A×% practical eff. B/100)

dodecylguanidine monoacetate [dodine]: the “Protection (in words)” value was “partial protection”. Besides, the Practical efficacy (dodine 150 g/ha alone) was 30.8%. Besides, the Practical efficacy (dodine 300 g/ha alone) was found to be 76.9%. The Practical efficacy (dodine 600 g/ha alone) turned out to be 75%.
As for `Cc1cc(C)nc(Nc2ccccc2)n1` [pyrimethanil], the “Protection (in words)” value was “partial protection”. The Practical efficacy (pyrimethanil 50 g/ha alone, apple plants var. Melrose Golden) was 65.4%. Further, the Practical efficacy (pyrimethanil 100 g/ha alone) turned out to be 65.4%. Moreover, the Practical efficacy (pyrimethanil 200 g/ha alone) is given as 61.5%.
